Assay results from patent publication US7291617B2, “Arylamidine derivative or salt thereof” (Toyama Chemical Co., Ltd., priority 2003, dated 2007).
Where a name gives a salt, the structure may show the parent alone.

System: Candida albicans TIMM 1623
Assay: Therapeutic effect on mouse systemic Candida albicans infection, single subcutaneous dose, T/C survival
Format: in vivo, ICR male mice
Settings: 0.1 mg/kg, administered once into the dorsal subcutis 2 hours after infection; observed until the 14th day
Experimental: Candida albicans TIMM 1623 was cultured at 30° C. overnight on a Sabouraud agar plate medium (Eiken Chemical Co., Ltd.), and the obtained culture was suspened in a sterilized physiological saline solution. Thus, a fungal solution for infection, having a concentration of 1×10^7 cells/ml, was prepared. This fungal solution was inoculated in a concentration of 0.2 ml (2×10^6 CFU/mouse) into the tail vein of each of five ICR male mice (4-week-old, body weight of 20±1 g). 2 hours later, 0.2 ml of a solution, which had been prepared by dissolving a test compound into a sterilized physiological saline solution and setting the concentration at 0.01 mg/ml, was administered once into the dorsal subcutis of each mouse. To mice of a control group, an equal amount of a sterilized physiological saline solution was administered.
Viability of the mice was observed until the 14th day after the infection, and the cumulative survival rate (T/C) of the treatment group to the control group was calculated, and the obtained value was used as an index of the life-prolonging effect.

In the case of `N=C(N)c1ccc(OCCCNCCNCCCOc2ccc(C(=N)N)cc2)cc1` [Example 24, 4-[3-({2-[(3-{4-[amino(imino)methyl]phenoxy}propyl)amino]ethyl}amino)propoxy]benzamidine hydrochloride], the “cumulative survival rate (T/C) of the treatment group to the control group” value is reported as 180.

System: Candida albicans TIMM 1623
Assay: Antifungal action, microbroth dilution growth inhibition
Format: cell-based
Settings: Candida albicans, TIMM1623, 36 h, read-out: IC50 (50% growth inhibitory concentration)
Experimental: 50% growth inhibitory concentration (IC50) was measured according to the microbroth dilution method, using, as a reference, the antifungal agent sensitivity test method proposed by the subcommittee for the antifungal agent sensitivity test, the Japanese Society for Medical Mycology (Japanese Journal of Medical Mycology, vol. 36, No. 1, pp. 62 to 64, 1995). Synthetic amino acid medium, fungal (SAAMF, manufactured by Nippon Bio-Supp. Center) was used as a medium for measurement of sensitivity. Candida albicans TIMM 1623 was cultured at 30° C. overnight on a Sabouraud agar plate medium (Eiken Chemical Co., Ltd.), and the obtained culture was suspended in a sterilized physiological saline solution. Thereafter, the suspension was diluted with a measurement medium such that the number of cells became 1×10^4 cells/ml, thereby producing an inoculum organism solution. 175 μl of a medium, 5 μl of a test agent (an agent diluted solvent in a growth control well), and 20 μl of the inoculum organism solution were added to a 96-well microplate (flat bottom, manufactured by Sumitomo Bakelite Co., Ltd.), and the mixture was stirred with a mixer. Thereafter, using a well Reader SME3400 (Scinics Co., Ltd.), an initial turbidity at a wavelength of 630 nm was measured. The above mixture was cultured at 35° C., and 36 hours later, a final turbidity was measure in the same manner. For an agent-diluted line, values were obtained by subtracting the initial turbidities from the final turbidities. For a growth control line also, values were obtained by subtracting the initial turbidities from the final turbidities. IC50 was defined as the lowest agent concentration among the test agent concentrations having a turbidity equal to or lower than the 50% value (IC50 calculated value) of a value obtained by subtracting the initial turbidity of a growth control from the final turbidity thereof.

Going from `CNCCCOc1ccc(C(=N)N)cc1` [Example 2, 4-[3-(methylamino)propoxy]benzamidine Hydrochloride] to `N=C(N)c1ccc(OCCCN)cc1` [Example 9-2, 4-(3-aminopropoxy)benzamidine Hydrochloride], the IC50 falls from 2 µg/mL to 0.5 µg/mL (4-fold).

Going from `N=C(N)c1ccc(OCCCNCCCCCC(=O)O)cc1` [Example 3-2, 6-[(3-{4-[amino(imino)methyl]phenoxy}propyl)amino]hexanoic Acid Hydrochloride] to `N=C(N)c1ccc(OCCCNCCN)cc1` [Example 10, 4-{3-[(2-aminoethyl)amino]propoxy}benzamidine hydrochloride], the IC50 rises from 0.5 µg/mL to 1 µg/mL (2-fold).

Going from `N=C(N)c1ccc(OCCCCN)cc1` [Example 5, 4-(4-aminobutoxy)benzamidine hydrochloride] to `N=C(N)c1ccc(OCCCCCN)cc1` [Example 7, 4-[(5-aminopentyl)oxy]benzamidine Hydrochloride], the IC50 rises from 0.25 µg/mL to 0.5 µg/mL (2-fold).

First: N=C(N)c1ccc(OCCCNCCNCCCOc2ccc(C(=N)N)cc2)cc1 [Example 24, 4-[3-({2-[(3-{4-[amino(imino)methyl]phenoxy}propyl)amino]ethyl}amino)propoxy]benzamidine hydrochloride]
Second: N=C(N)c1ccc(OCCCNCCNCCOc2ccc(C(=N)N)cc2)cc1 [Example 27, 4-[3-({2-[(2-{4-[amino(imino)methyl]phenoxy}ethyl)amino]ethyl}amino)propoxy]benzamidine Hydrochloride]
The IC50 of the first is 4-fold lower: 0.0078 µg/mL for the first, 0.0313 µg/mL for the second.

Compared with `N=C(N)c1ccc(OCCNCCNCCOc2ccc(C(=N)N)cc2)cc1` [Example 25, 4-[2-({2-[(2-{4-[amino(imino)methyl]phenoxy}ethyl)amino]ethyl}amino)ethoxy]benzamidine Hydrochloride], `N=C(N)c1ccc(OCCCNCCCOc2ccc(C(=N)N)cc2)cc1` [Example 32, 4-{3-[(3-{4-[amino(imino)methyl]phenoxy}propyl)amino]propoxy}benzamidine Hydrochloride] is 2-fold higher in IC50: 0.0156 µg/mL for the first, 0.0313 µg/mL for the second.

Going from `N=C(N)c1ccc(OCCCCNCCNCCCCOc2ccc(C(=N)N)cc2)cc1` [Example 26, 4-[4-({2-[(4-{4-[amino(imino)methyl]phenoxy}butyl)amino]ethyl}amino)butoxy]benzamidine Hydrochloride] to `N=C(N)c1ccc(OCCCNCCNCCCOc2cccc(C(=N)N)c2)cc1` [Example 74, 3-[3-({2-[(3-{4-[amino(imino)methyl]phenoxy}propyl)amino]ethyl}amino)propoxy]benzamidine Hydrochloride], the IC50 rises from 0.0625 µg/mL to 0.125 µg/mL (2-fold).

Compared with `N=C(N)c1ccc(OCCCN2CCN(CCCOc3ccc(C(=N)N)cc3)CC2)cc1` [Example 40-2, 4-{3-[4-(3-{4-[amino(imino)methyl]phenoxy}propyl)-1-piperazinyl]propoxy}benzamidine hydrochloride], `N=C(N)c1ccc(OCCCN2CCCN(CCCOc3ccc(C(=N)N)cc3)CC2)cc1` [Example 55, 4-{3-[4-(3-{4-[amino(imino)methyl]phenoxy}propyl)-1,4-diazepan-1-yl]propoxy}benzamidine Hydrochloride] is 4-fold higher in IC50: 0.0039 µg/mL for the first, 0.0156 µg/mL for the second.

Going from `N=C(N)c1ccc(OCCCN2CCN(CCCOc3ccc(C(=N)N)c(F)c3)CC2)cc1F` [Example 42, 4-{3-[4-(3-{4-[amino(imino)methyl]-3-fluorophenoxy}propyl)-1-piperazinyl]propoxy}-2-fluorobenzamidine Hydrochloride] to `N=C(N)c1ccc(OCCCN2CCN(CCCOc3ccc(C(=N)N)cc3F)CC2)c(F)c1` [Example 43, 4-{3-[4-(3-{4-[amino(imino)methyl]-2-fluorophenoxy}propyl)-1-piperazinyl]propoxy}-3-fluorobenzamidine Hydrochloride], the IC50 rises from 0.0156 µg/mL to 0.0313 µg/mL (2-fold).

Compared with `N=C(N)c1ccc(OCCCN2CCC(CCOc3ccc(C(=N)N)cc3)CC2)cc1` [Example 56, 4-{2-[1-(3-{4-[amino(imino)methyl]phenoxy}propyl)-4-piperidinyl]ethoxy}benzamidine Hydrochloride], `N=C(N)c1ccc(OCCCNC2CCN(CCCOc3ccc(C(=N)N)cc3)CC2)cc1` [Example 58, 4-(3-{[1-(3-{4-[amino(imino)methyl]phenoxy}propyl)-4-piperidinyl]amino}propoxy)benzamidine Hydrochloride] is 8-fold higher in IC50: 0.0039 µg/mL for the first, 0.0313 µg/mL for the second.

In the case of `N=C(N)c1ccc(OCCCNC2CCN(CCCOc3ccc(C(=N)N)cc3)C2)cc1` (stereo not shown) [Example 57, 4-(3-{3-[(3-{4-[amino (imino)methyl]phenoxy}propyl)amino]-1-pyrrolidinyl}propoxy)benzamidine Hydrochloride], the IC50 is reported as 0.0313 µg/mL.

Same assay, conditions: TIMM1623; Candida albicans TIMM 1623, SAAMF medium, 35° C., 36 hours, turbidity at 630 nm; read-out: IC50 (50% growth inhibitory concentration)

First: N=C(N)c1ccc(OCCCN2CCN(CCCOc3ccc(C(=N)N)cc3)C(=O)C2=O)cc1 [Example 19, 4-{3-[4-(3-{4-[amino(imino)methyl]phenoxy}propyl)-2,3-dioxo-1-piperazinyl]propoxy}benzamidine acetate]
Second: N=C(N)c1ccc(OCCCN2CCN(CCOc3ccc(C(=N)N)cc3)C(=O)C2=O)cc1 [Example 22, 4-{3-[4-(2-{4-[amino(imino)methyl]phenoxy}ethyl)-2,3-dioxo-1-piperazinyl]propoxy}benzamidine Acetate]
The IC50 of the first is 16-fold lower: 0.125 µg/mL for the first, 2 µg/mL for the second.

Going from `N=C(N)c1ccc(OCCN2CCN(CCOc3ccc(C(=N)N)cc3)C(=O)C2=O)cc1` [Example 20, 4-{2-[4-(2-{4-[amino(imino)methyl]phenoxy}ethyl)-2,3-dioxo-1-piperazinyl]ethoxy}benzamidine Acetate] to `N=C(N)c1ccc(OCCCCN2CCN(CCCCOc3ccc(C(=N)N)cc3)C(=O)C2=O)cc1` [Example 21, 4-{4-[4-(4-{4-[amino(imino)methyl]phenoxy}butyl)-2,3-dioxo-1-piperazinyl]butoxy}benzamidine Acetate], the IC50 rises from 0.125 µg/mL to 0.25 µg/mL (2-fold).

`N=C(N)c1ccc(OC/C=C/CN2CCN(CCCOc3ccc(C(=N)N)cc3)C(=O)C2=O)cc1` [Example 23, 4-({(E)-4-[4-(3-{4-[amino(imino)methyl]phenoxy}propyl)-2,3-dioxo-1-piperazinyl]-2-butenyl}oxy)benzamidine Acetate] showed an IC50 of 2 µg/mL.

System: Candida albicans TIMM 1623
Assay: Therapeutic effect on mouse systemic Candida albicans infection, 7 subcutaneous doses, survival to day 28
Format: in vivo, ICR male mice
Settings: 0.2 ml of 0.01 mg/ml solution subcutaneously once a day, 7 times in total; five mice per group; control group all died
Experimental: Candida albicans TIMM 1623 was cultured at 30° C. overnight on a Sabouraud agar plate medium (Eiken Chemical Co., Ltd.), and the cultured fumgus was suspended in a sterilized physiological saline solution. Thus, a fungal solution for infection, having a concentration of approximately 10^7 cells/ml, was prepared. 0.2 ml of this fungal solution was inoculated into the tail vein of each of five ICR male mice (4-week-old, body weight of 20±1 g). 2 hours after the infection, 0.2 ml of a solution, which had been prepared by dissolving a test compound into a sterilized physiological saline solution and adjusting the concentration at 0.01 mg/ml, was administered once into the dorsal subcutis of each mouse. From the following day, the same solution was administered thereto once a day for 6 days. Thus, the above solution was administered into the dorsal subcutis of the mice 7 times in total. To mice of a control group, an equal amount of a sterilized physiological saline solution was administered. Viability of the mice was observed until the 28th day after the infection.

In the case of `N=C(N)c1ccc(OCCCNCCNCCCOc2ccc(C(=N)N)cc2)cc1` [Example 24, 4-[3-({2-[(3-{4-[amino(imino)methyl]phenoxy}propyl)amino]ethyl}amino)propoxy]benzamidine hydrochloride], the “survival ratio on the 28th day after the infection” value (shortened to “survival ratio on the 28th day”) is reported as 3/5.
For `N=C(N)c1ccc(OCCCN2CCN(CCCOc3ccc(C(=N)N)cc3)CC2)cc1` [Example 40-2, 4-{3-[4-(3-{4-[amino(imino)methyl]phenoxy}propyl)-1-piperazinyl]propoxy}benzamidine hydrochloride], the “survival ratio on the 28th day” value was 4/5.
`N=C(N)c1ccc(OCCCN2CCC(CCOc3ccc(C(=N)N)cc3)CC2)cc1` [Example 56, 4-{2-[1-(3-{4-[amino(imino)methyl]phenoxy}propyl)-4-piperidinyl]ethoxy}benzamidine Hydrochloride] was tested, and the “survival ratio on the 28th day” value was 4/5.
